# Results published in ChEMBL document CHEMBL5143721, “Novel Hydroxychalcone-Based Dual Inhibitors of Aldose Reductase and α-Glucosidase as Potential Therapeutic Agents against Diabetes Mellitus and Its Complications” (J Med Chem, 2022).
# Activity calls are given as the source filed them. No cut-off for these calls is given here.
# Columns and labels:
# [1] = Inhibition of Wistar rat lens ALR2 using D,L-glyceraldehyde as substrate preincubated for 10 mins in presence of NADPH followed by substrate addition and measured after 4 mins; type: tissue-based
# [2] = Inhibition of Wistar rat kidney ALR1 using sodium D-glucuronate as substrate preincubated for 10 mins in presence of NADPH followed by substrate addition and measured after 4 mins; type: tissue-based
# [3] = Antioxidant activity assessed as DPPH radical scavenging activity at 100 uM incubated for 30 mins by DPPH assay relative to control; type: functional
# [4] = Inhibition of Saccharomyces cerevisiae Alpha-glucosidase using p-nitrophenyl glucopyranoside as substrate preincubated for 5 mins followed by substrate addition and measured for 30 mins
# Rattus norvegicus [5] = species: Rattus norvegicus; test: Selectivity index, ratio of IC50 for Wistar rat kidney ALR1 to IC50 for Wistar rat lens ALR2
# [6] = Antioxidant activity assessed as DPPH radical scavenging activity at 50 uM incubated for 30 mins by DPPH assay relative to control; type: functional
# [7] = Antioxidant activity assessed as DPPH radical scavenging activity at 10 uM incubated for 30 mins by DPPH assay relative to control; type: functional
# Brain [8] = test: Antioxidant activity in rat brain homogenate assessed as inhibition of lipid peroxidation by measuring MDA concentration at 100 uM by TBARS assay relative to control; type: functional, tissue-based; set-up: scale not given: the % may be the effect or the level left
# Brain [9] = test: Antioxidant activity in rat brain homogenate assessed as inhibition of lipid peroxidation by measuring MDA concentration at 50 uM by TBARS assay relative to control; type: functional, tissue-based; set-up: scale not given: the % may be the effect or the level left
# [10] = Octanol/buffer distribution coefficient, log D of compound at pH 7.4 incubated for 24 hrs by shake flask based HPLC method; type: physicochemical
# Brain [11] = test: Antioxidant activity in rat brain homogenate assessed as inhibition of lipid peroxidation by measuring MDA concentration at 1 uM by TBARS assay relative to control; type: functional, tissue-based; set-up: scale not given: the % may be the effect or the level left
# [12] = Antioxidant activity assessed as DPPH radical scavenging activity at 5 uM incubated for 30 mins by DPPH assay relative to control; type: functional
# [13] = Antioxidant activity assessed as DPPH radical scavenging activity at 1 uM incubated for 30 mins by DPPH assay relative to control; type: functional
# Brain [14] = test: Antioxidant activity in rat brain homogenate assessed as inhibition of lipid peroxidation by measuring MDA concentration at 5 uM by TBARS assay relative to control; type: functional, tissue-based; set-up: scale not given: the % may be the effect or the level left
# Brain [15] = test: Antioxidant activity in rat brain homogenate assessed as inhibition of lipid peroxidation by measuring MDA concentration at 10 uM relative to control; type: functional, tissue-based; set-up: scale not given: the % may be the effect or the level left
# HEK-293T = test: Cytotoxicity against HEK293T cells at 15 to 200 micromol/L by MTT assay; type: toxicity, cell-based; conditions: human, dose 15-200 µmol/L
# Rattus norvegicus [16] = test: Antidiabetic activity against STZ-induced diabetic Sprague-Dawley rat model assessed as reduction in fasting blood glucose level at 160 mg/kg, IG administered once daily for 28 days; type: functional; set-up: scale not given: the % may be the effect or the level left; conditions: time 28 day
# Rattus norvegicus [17] = test: Antidiabetic activity against 12 hrs fasted STZ-induced diabetic Sprague-Dawley rat model assessed as reduction in blood glucose level at 160 mg/kg, IG administered once daily for 28 days followed by glucose addition after 30 mins post cpd treatment and measured after 30 mins post glucose treatment by oral glucose tolerance test; type: functional, organism-based; conditions: time 673.0 hrs
# Rattus norvegicus [18] = test: Antidiabetic activity against 12 hrs fasted STZ-induced diabetic Sprague-Dawley rat model assessed as reduction in AUC of blood glucose level at 160 mg/kg, IG administered once daily for 28 days followed by maltose addition after 30 mins post cpd treatment and measured after 30 mins post maltose treatment; type: functional; set-up: scale not given: the % may be the effect or the level left; conditions: time 673 hrs
# Rattus norvegicus [19] = test: Antidiabetic activity against STZ-induced diabetic Sprague-Dawley rat model assessed as increase in liver glycogen levels at 160 mg/kg, IG administered once daily for 28 days; type: functional; conditions: time 28 day
# [20] = In vivo inhibition of ALR2 in STZ-induced diabetic Sprague-Dawley rat model assessed as reduction in ALR2 activity in lens at 160 mg/kg, IG administered once daily for 28 days relative to control; type: functional; set-up: scale not given: the % may be the effect or the level left; conditions: time 28 day
# Rattus norvegicus [21] = test: Antidiabetic activity against STZ-induced diabetic Sprague-Dawley rat model assessed as reduction in total cholesterol level in serum at 160 mg/kg, IG administered once daily for 28 days relative to control; type: functional; set-up: scale not given: the % may be the effect or the level left; conditions: time 28 day
# Rattus norvegicus [22] = test: Antidiabetic activity against STZ-induced diabetic Sprague-Dawley rat model assessed as reduction in triglycerides level in serum at 160 mg/kg, IG administered once daily for 28 days relative to control; type: functional; set-up: scale not given: the % may be the effect or the level left; conditions: time 28 day
# Rattus norvegicus [23] = test: Antidiabetic activity against STZ-induced diabetic Sprague-Dawley rat model assessed as reduction in triglycerides level in liver at 160 mg/kg, IG administered once daily for 28 days relative to control; type: functional; set-up: scale not given: the % may be the effect or the level left; conditions: time 28 day
# Rattus norvegicus [24] = species: Rattus norvegicus; test: Non competitive inhibition of Wistar rat lens ALR2 using D,L-glyceraldehyde as substrate up to 200 uM by Lineweaver-Burk plot analysis; type: tissue-based
# Saccharomyces cerevisiae = test: Non competitive inhibition of Saccharomyces cerevisiae alpha-glucosidase using p-nitrophenyl glucopyranoside as substrate up to 200 uM by Lineweaver-Burk plot analysis
# Rattus norvegicus [25] = test: Antidiabetic activity against STZ-induced diabetic Sprague-Dawley rat model assessed as reduction in fasting blood glucose level at 100 mg/kg, IG administered once daily for 28 days; type: functional; set-up: scale not given: the % may be the effect or the level left; conditions: time 28 day
SMILES,IC50 [1],IC50 [2],Activity [3],IC50 [4],Ratio IC50 (Rattus norvegicus [5]),Activity [6],Activity [7],Activity (Brain [8]),Activity (Brain [9]),logD at 24 h [10],further results
O=C(/C=C/c1ccc(O)c(C(F)(F)F)c1)c1cccc2[nH]c(=O)oc12,> 100 µM,> 100 µM,,,,,,,,,
CC(C)=CCn1c(=O)oc2c(C(=O)/C=C/c3cc(F)c(O)c(F)c3)cccc21,0.097 µM,4.75 µM,52.9%,59.9 µM,49,35%,9.1%,38.3%,25.9%,1.13,
O=C(/C=C/c1ccc(O)c(F)c1)c1cccc2[nH]c(=O)oc12,3.74 µM,3.75 µM,,105 µM,1.19,,,,,,
Cc1c(C)c2c(c(C)c1O)CCC(C)(C(=O)O)O2 (centres undefined),,,,,,,86.3%,79.2%,47.5%,,Activity (Brain [11]): 3.39%; Activity [12]: 46.7%; Activity [13]: 8.63%; Activity (Brain [14]): 15.5%; Activity (Brain [15]): 31.9%
CC(C)=CCn1c(=O)oc2c(C(=O)/C=C/c3ccc(O)c(O)c3)cccc21,0.149 µM,7.48 µM,98%,,39.7,96%,93%,97%,90.7%,0.98,Activity (Brain [11]): 35%; Activity [12]: 90.9%; Activity [13]: 41.2%; Activity (Brain [14]): 52%; Activity (HEK-293T): Non-Toxic; Activity (Rattus norvegicus [16]): 20.7%; Activity (Rattus norvegicus [17]): Active; Activity (Rattus norvegicus [18]): 21.16%; Activity (Rattus norvegicus [19]): 43.83%; Activity [20]: 47.2%; Activity (Rattus norvegicus [21]): 50.7%; Activity (Rattus norvegicus [22]): 64.3%; Activity (Rattus norvegicus [23]): 32.8%; Activity (Brain [15]): 65.8%
CC(C)=CCn1c(=O)oc2c(C(=O)/C=C/c3ccc(O)c(F)c3)cccc21,0.517 µM,> 100 µM,53.8%,52.1 µM,> 193,32.5%,12.7%,33.3%,22.4%,1.64,
O=C(/C=C/c1ccc(O)c(Cl)c1)c1cccc2[nH]c(=O)oc12,> 100 µM,> 100 µM,,,,,,,,,
O=c1[nH]c2cccc(/C=C/c3ccc(O)cc3)c2o1,495 µM,,,,,,,,,,
COc1cc(O)ccc1/C=C/C(=O)c1cccc2[nH]c(=O)oc12,16.7 µM,> 100 µM,,,> 5.98,,,,,,
CC(C)=CCCn1c(=O)oc2c(C(=O)/C=C/c3ccc(O)c(O)c3)cccc21,0.13 µM,10.3 µM,98.5%,4.13 µM,79.3,97%,94.4%,96.4%,92.5%,1.04,Activity (Brain [11]): 34.2%; Activity [12]: 89.8%; Activity [13]: 44.7%; Activity (Brain [14]): 63.2%; Km (Rattus norvegicus [24]): 585 µM; Km (Saccharomyces cerevisiae): 449 µM; Activity (Brain [15]): 73%
COC(=O)Cn1c(=O)oc2c(C(=O)/C=C/c3ccc(O)cc3OC)cccc21,0.826 µM,> 100 µM,,,> 121,,,,,,
COC(=O)Cn1c(=O)oc2c(C(=O)/C=C/c3ccc(O)c(Cl)c3)cccc21,12.2 µM,> 100 µM,,,> 8.82,,,,,,
COC(=O)Cn1c(=O)oc2c(C(=O)/C=C/c3ccc(O)c(F)c3)cccc21,0.518 µM,> 100 µM,40.1%,57.2 µM,> 193,19.2%,5.09%,40.1%,25.4%,1.31,
CN(C)C(=N)NC(=N)N [METFORMIN],,,,,,,,,,,Activity (Rattus norvegicus [25]): 38.5%
COC(=O)Cn1c(=O)oc2c(C(=O)/C=C/c3cccc(O)c3)cccc21,> 100 µM,> 100 µM,,,,,,,,,
